Data: publication PMC2365111, “Cytotoxicity of Poly(Phenolic)Sulfonates and Their Sodium Salts in L1210 Lymphoid Leukemia Cells” (Metal-Based Drugs, 1998)

Legend:
L1210 protein synthesis = experiment: Incorporation of labeled precursor into protein; type: cell-based, mouse; conditions: 60 min, N=6
Source text: (§1) CYTOTOXlCITY OF POLY(PHENOLIC)SULFONATES AND THEIR SODIUM SALTS IN L1210 LYMPHOID LEUKEMIA CELLS Fei Wang, Amy E. Warren, Cheryl R. Barnes and Iris H. Hall* Division of Medicinal Chemistry and Natural Products University of North Carolina Chapel Hill, N.C. […] Because ofthese properties it was surmised that these poly(phenolic)sulfonated compounds may have antineoplastic activity. METHODS Source of Compounds Test compounds were supplied by GeneLabs, Inc. [Redwood City, CA [Table 1]. Radioisotopes were obtained from New England Nuclear [Dupont, Boston, MA]. Substrates and co-factors were purchased om Sigma Chemical Co., [St Louis, MO]. Pentosan sulfate and other antineoplastic standards were obtained from Sigma Chemical Co. Tumor lines were obtained from American Type Culture Collection [Rockville, MD]. 147 Vol. 5, No. 3, 1998 Cytotoxicity ofSodium Poly(Phenolic)Sulfonates in L1210 Lymphoid Leukemia Cells Table 1 Structures of Poly(phenolic)sulfonate Compounds O2R" n Compound R' R" n MW # G1-2041 H OH 8 1489.46 G1-2029 H OH 6 1117.09 G1-2030 H OH 4 744.73 GI-2021 CH3 ONa 8 1777.5 G1-2057 CH3 ONa 4 888.75 GI-2158 CH3 ONa 6 1333.13 GI-2063 OCH3 ONa 8 2001.65 G1-2042 OAc ONa 8 2017.73 Cytotoxicity Poly(phenolic)sulfonates were tested for cytotoxic activity by homogenizing drug in 0.05% Tween 80/H20 to give a mg/ml stock concentration. These solutions were sterilized by passing them through an acrodisc ([…]). The following cell lines were maintained by literature techniques: murine L1210 lymphoid leukemia, P-388 lymphocytic leukemia, rat UMR 106 osteosarcoma, human Tmolt3 acute lymphoblastic T cell leukemia, HUT-8 lymphoma, HeLa-S suspended cervical carcinoma, HeLa solid cervical carcinoma, KB epidermoid nasopharynx, A431 epidermoid carcinoma, colorectal adenocarcinoma SW480, HCT-8 ileocecal adenocarcinoma, lung bronchogenic MB-9812, A549 lung carcinoma, and glioma HS683. Geran et al.'s protocol was used to assess the cytotoxicity of the compounds and standards in each cell line. Cell numbers were determined by the trypan blue exclusion technique. Solid tumor cytotoxicity was determined by Leibovitz et al. 's method utilizing crystal violeeOH and read at 562 nm (Molecular Devices). Values for cytotoxicity were expressed as EDs0 g/ml, i.e. the concentration ofthe compound inhibiting 50% ofcell growth. A value of less than 4 µg/ml was required for significant activity ofgrowth inhibition. Incorporation Studies Incorporation of labeled precursors into 3H-DNA, 3H -RNA and 3H -protein for 10 L1210 cells was obtained. The concentration response for inhibition of DNA, RNA and protein synthesis of the compounds at 25, 50 and 100 l.tM was determined for 60 min incubations. Incorporation of 14C -glycine (53.0 mCi/mmol) into purines was obtained by the method of Cadman et al.[12]. Incorporation of 4C- formate (53.0 mCi/mmol) into pyrimidines was determined by the method of Christopherson et al.[13]. Enzyme Assays Inhibition of various enzyme activities was performed by first preparing the appropriate L1210 cell homogenates or subcellular fractions, then adding the drug to be tested during the enzyme assay. For the concentration response studies, inhibition of enzyme activity was determined at 25, 50 and 100 l.tM of compounds G1-2021, G1-2029, GI-2041 and G1-2063 after 60 min incubations. DNA polymerase Ot activity was determined in cytoplasmic extracts isolated by Eichler et aL's method. The DNA polymerase assay was described by Sedwick et al.[15] using 3H-TTP. Messenger-, ribosomal- and transfer-RNA polymerase enzymes were isolated with different concentrations of ammonium sulfate; individual RNA polymerase activities were determined using 3H -UTP 16,17]. Ribonucleoside reductase activity was measured using 4C -CDP with dithioerythritol. The deoxyribonucleotides 4C -dCDP were separated from the ribonucleotides by TLC on PEI plates. […]

L1210 DNA synthesis = experiment: Incorporation of labeled precursor into DNA; type: cell-based, mouse; conditions: 60 min, N=6
Source text: as §1

tRNA polymerase = experiment: Transfer-RNA polymerase activity, L1210; type: biochemical, mouse; conditions: 60 min, N=6
Source text: as §1

[1] = target: T1, Thymidine monophosphate kinase (Mus musculus, UniProt P97930); experiment: TMP kinase activity, L1210; type: biochemical; conditions: 60 min, N=6
T1 construct: preparing the appropriate L1210 cell homogenates or subcellular fractions; endogenous in cells; host or cells: L1210 murine lymphoid leukemia cells, homogenate or subcellular fraction
T1 sequence (P97930 1-212): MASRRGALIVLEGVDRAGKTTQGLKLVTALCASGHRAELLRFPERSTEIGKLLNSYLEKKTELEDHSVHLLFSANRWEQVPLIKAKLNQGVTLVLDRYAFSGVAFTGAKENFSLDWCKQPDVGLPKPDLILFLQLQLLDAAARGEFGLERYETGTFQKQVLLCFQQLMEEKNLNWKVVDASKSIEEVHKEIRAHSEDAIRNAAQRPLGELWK
Source text: as §1

Thymidine kinase = Thymidine kinase activity, L1210; type: biochemical, mouse; conditions: 60 min, N=6
Source text: as §1

rRNA polymerase = target: T2, rRNA polymerase (Mus musculus, UniProt O35134); experiment: Ribosomal-RNA polymerase activity, L1210; type: biochemical; conditions: 60 min, N=6
T2 construct: Messenger-, ribosomal- and transfer-RNA polymerase enzymes were isolated with different concentrations of ammonium sulfate; endogenous in cells; host or cells: L1210 murine lymphoid leukemia cells, ammonium sulfate fraction
Source text: as §1

mRNA polymerase = target: T3, mRNA polymerase (Mus musculus, UniProt P08775); experiment: Messenger-RNA polymerase activity, L1210; type: biochemical; conditions: 60 min, N=6
T3 construct: Messenger-, ribosomal- and transfer-RNA polymerase enzymes were isolated with different concentrations of ammonium sulfate; endogenous in cells; host or cells: L1210 murine lymphoid leukemia cells, ammonium sulfate fraction
Source text: CYTOTOXlCITY OF POLY(PHENOLIC)SULFONATES AND THEIR SODIUM SALTS IN L1210 LYMPHOID LEUKEMIA CELLS Fei Wang, Amy E. Warren, Cheryl R. Barnes and Iris H. Hall* Division of Medicinal Chemistry and Natural Products University of North Carolina Chapel Hill, N.C. […] Because ofthese properties it was surmised that these poly(phenolic)sulfonated compounds may have antineoplastic activity. METHODS Source of Compounds Test compounds were supplied by GeneLabs, Inc. [Redwood City, CA [Table 1]. Radioisotopes were obtained from New England Nuclear [Dupont, Boston, MA]. Substrates and co-factors were purchased om Sigma Chemical Co., [St Louis, MO]. Pentosan sulfate and other antineoplastic standards were obtained from Sigma Chemical Co. Tumor lines were obtained from American Type Culture Collection [Rockville, MD]. […] Cell numbers were determined by the trypan blue exclusion technique. Solid tumor cytotoxicity was determined by Leibovitz et al. 's method utilizing crystal violeeOH and read at 562 nm (Molecular Devices). Values for cytotoxicity were expressed as EDs0 g/ml, i.e. the concentration ofthe compound inhibiting 50% ofcell growth. […] Incorporation of 4C- formate (53.0 mCi/mmol) into pyrimidines was determined by the method of Christopherson et al.[13]. […] DNA polymerase Ot activity was determined in cytoplasmic extracts isolated by Eichler et aL's method. […] Messenger-, ribosomal- and transfer-RNA polymerase enzymes were isolated with different concentrations of ammonium sulfate; individual RNA polymerase activities were determined using 3H -UTP 16,17]. Ribonucleoside reductase activity was measured using 4C -CDP with dithioerythritol. […]

DNA polymerase α = target: T4, DNA polymerase α (Mus musculus, UniProt P33609); experiment: DNA polymerase alpha activity, L1210 cytoplasmic extracts; type: biochemical; conditions: for DNA polymerase α: 60 min, N=6; for DNA polymerase activity time course, in words: 50 μM over 2 hr
T4 construct: endogenous in cells; host or cells: L1210 murine lymphoid leukemia cells, cytoplasmic extract
Source text: as §1

[2] = target: T5, Carbamyl phosphate synthetase (Mus musculus, UniProt B2RQC6); experiment: Carbamyl phosphate synthetase activity, L1210; type: biochemical; conditions: 60 min, N=6
T5 construct: preparing the appropriate L1210 cell homogenates or subcellular fractions; endogenous in cells; host or cells: L1210 murine lymphoid leukemia cells, homogenate or subcellular fraction
Source text: as §1

L1210 RNA synthesis = experiment: Incorporation of labeled precursor into RNA; type: cell-based, mouse; conditions: 60 min, N=6
Source text: as §1, with “Enzyme Assays Inhibition of various enzyme activities was performed by first preparing the appropriate L1210 cell homogenates or subcellular fractions, then adding the drug to be tested during the enzyme assay. For the concentration response studies, inhibition of enzyme activity was determined at 25, 50 and 100 l.tM of compounds G1-2021, G1-2029, GI-2041 and G1-2063 after 60 min incubations.” left out, “The DNA polymerase assay was described by Sedwick et al.[15] using 3H-TTP.” left out, “dithioerythritol.” for “dithioerythritol. The deoxyribonucleotides 4C -dCDP were separated from the ribonucleotides by TLC on PEI plates.”

[3] = system: L1210 de novo pyrimidine synthesis; experiment: 14C-formate incorporation into pyrimidines; type: cell-based, mouse; conditions: 60 min, N=6
Source text: as §1

T4 sequence (P33609 whole entry): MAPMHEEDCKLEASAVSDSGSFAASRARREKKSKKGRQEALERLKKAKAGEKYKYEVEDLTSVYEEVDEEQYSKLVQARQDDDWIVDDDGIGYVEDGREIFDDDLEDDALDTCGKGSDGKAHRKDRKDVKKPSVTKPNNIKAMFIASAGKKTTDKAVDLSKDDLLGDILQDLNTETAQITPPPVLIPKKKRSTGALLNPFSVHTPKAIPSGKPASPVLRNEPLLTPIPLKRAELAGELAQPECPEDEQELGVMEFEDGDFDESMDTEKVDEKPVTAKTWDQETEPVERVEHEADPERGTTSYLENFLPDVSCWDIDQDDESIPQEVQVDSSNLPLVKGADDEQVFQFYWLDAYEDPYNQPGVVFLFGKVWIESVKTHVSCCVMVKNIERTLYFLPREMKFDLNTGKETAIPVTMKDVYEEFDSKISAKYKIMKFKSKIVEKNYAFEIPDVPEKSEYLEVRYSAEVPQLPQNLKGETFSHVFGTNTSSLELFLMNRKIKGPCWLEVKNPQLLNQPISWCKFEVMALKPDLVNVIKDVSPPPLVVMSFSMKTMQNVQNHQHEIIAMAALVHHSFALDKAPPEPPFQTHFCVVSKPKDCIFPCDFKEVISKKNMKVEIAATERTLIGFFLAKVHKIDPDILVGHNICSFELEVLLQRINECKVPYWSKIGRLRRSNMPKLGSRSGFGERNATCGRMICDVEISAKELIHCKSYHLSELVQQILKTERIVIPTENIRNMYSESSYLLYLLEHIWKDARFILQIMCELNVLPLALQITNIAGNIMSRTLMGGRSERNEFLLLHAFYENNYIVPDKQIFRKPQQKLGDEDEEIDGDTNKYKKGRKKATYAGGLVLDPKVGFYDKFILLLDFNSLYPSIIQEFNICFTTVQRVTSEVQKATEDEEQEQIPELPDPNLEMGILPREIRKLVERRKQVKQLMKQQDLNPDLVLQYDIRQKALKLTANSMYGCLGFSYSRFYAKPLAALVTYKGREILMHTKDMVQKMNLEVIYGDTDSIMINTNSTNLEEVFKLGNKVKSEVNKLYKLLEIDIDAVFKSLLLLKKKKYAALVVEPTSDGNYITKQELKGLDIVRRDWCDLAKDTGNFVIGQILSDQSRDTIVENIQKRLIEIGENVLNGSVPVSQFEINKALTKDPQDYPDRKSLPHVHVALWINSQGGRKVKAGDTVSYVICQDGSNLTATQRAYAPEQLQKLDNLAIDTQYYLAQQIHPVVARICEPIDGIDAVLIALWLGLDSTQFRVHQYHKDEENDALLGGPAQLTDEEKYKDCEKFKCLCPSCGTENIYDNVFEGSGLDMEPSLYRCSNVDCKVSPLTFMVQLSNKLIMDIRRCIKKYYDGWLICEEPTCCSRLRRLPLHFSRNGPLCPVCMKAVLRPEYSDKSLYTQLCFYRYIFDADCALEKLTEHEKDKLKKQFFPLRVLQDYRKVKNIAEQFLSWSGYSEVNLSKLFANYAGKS
T4 sequence (P33611 whole entry partner): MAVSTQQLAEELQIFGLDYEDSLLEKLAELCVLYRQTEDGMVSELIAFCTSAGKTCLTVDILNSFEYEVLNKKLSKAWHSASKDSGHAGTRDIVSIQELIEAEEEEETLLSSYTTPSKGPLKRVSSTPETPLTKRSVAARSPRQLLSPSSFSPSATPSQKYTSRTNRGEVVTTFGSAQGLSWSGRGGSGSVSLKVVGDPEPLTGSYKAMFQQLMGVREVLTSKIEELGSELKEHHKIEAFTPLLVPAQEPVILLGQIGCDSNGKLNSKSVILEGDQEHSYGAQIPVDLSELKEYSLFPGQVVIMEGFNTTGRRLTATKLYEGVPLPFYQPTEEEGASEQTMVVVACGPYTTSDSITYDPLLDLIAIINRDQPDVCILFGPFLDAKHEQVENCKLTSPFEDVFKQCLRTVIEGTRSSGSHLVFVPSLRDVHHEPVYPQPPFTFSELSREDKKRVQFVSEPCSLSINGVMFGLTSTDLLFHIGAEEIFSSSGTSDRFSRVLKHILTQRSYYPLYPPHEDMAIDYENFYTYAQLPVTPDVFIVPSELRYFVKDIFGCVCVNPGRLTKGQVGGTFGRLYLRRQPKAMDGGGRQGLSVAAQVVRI
T4 sequence (P20664 whole entry partner): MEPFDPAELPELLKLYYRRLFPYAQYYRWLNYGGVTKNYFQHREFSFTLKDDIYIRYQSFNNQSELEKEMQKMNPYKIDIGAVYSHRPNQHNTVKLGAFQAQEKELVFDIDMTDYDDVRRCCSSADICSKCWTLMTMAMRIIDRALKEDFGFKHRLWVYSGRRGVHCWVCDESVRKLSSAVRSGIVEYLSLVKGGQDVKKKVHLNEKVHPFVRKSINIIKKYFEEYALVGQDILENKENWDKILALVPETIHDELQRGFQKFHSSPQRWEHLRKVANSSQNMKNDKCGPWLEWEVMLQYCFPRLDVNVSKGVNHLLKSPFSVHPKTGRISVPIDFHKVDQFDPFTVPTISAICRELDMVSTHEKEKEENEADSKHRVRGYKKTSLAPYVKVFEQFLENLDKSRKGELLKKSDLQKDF
T4 sequence (P33610 whole entry partner): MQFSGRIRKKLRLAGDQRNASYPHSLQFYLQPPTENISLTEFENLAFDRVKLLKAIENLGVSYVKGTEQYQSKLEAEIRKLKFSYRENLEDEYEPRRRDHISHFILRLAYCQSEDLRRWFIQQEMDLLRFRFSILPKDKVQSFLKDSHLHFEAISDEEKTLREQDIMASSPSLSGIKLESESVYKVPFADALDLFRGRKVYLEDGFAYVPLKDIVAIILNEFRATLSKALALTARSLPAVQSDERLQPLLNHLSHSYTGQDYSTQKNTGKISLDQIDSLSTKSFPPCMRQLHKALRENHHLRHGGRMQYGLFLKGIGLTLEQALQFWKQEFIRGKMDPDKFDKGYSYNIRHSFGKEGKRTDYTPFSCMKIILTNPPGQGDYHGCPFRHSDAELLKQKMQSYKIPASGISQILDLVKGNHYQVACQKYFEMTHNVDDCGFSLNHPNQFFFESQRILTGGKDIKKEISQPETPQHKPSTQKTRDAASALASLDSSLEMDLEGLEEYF

| Structure (SMILES) | Protein synthesis (L1210 protein synthesis; 50 μM) | Protein synthesis (L1210 protein synthesis; 100 μM) | DNA synthesis (L1210 DNA synthesis; 50 μM) | tRNA polymerase (tRNA polymerase; 25 μM) | tRNA polymerase (tRNA polymerase; 50 μM) | Thymidine monophosphate kinase ([1]; 25 μM) | Thymidine monophosphate kinase ([1]; 50 μM) | Thymidine kinase (Thymidine kinase; 25 μM) | Thymidine kinase (Thymidine kinase; 50 μM) | rRNA polymerase (rRNA polymerase; 25 μM) | rRNA polymerase (rRNA polymerase; 50 μM) | rRNA polymerase (rRNA polymerase; 100 μM) | mRNA polymerase (mRNA polymerase; 100 μM) | DNA polymerase α (DNA polymerase α; 25 μM) | DNA polymerase activity time course, in words (DNA polymerase α) | DNA polymerase α (DNA polymerase α; 100 μM) | Carbamyl phosphate synthetase ([2]; 25 μM) | RNA synthesis (L1210 RNA synthesis; 50 μM) | Pyrimidine de novo synthesis ([3]; 25 μM) | Pyrimidine de novo synthesis ([3]; 50 μM) | further results |
| --- | --- | --- | --- | --- | --- | --- | --- | --- | --- | --- | --- | --- | --- | --- | --- | --- | --- | --- | --- | --- | --- |
| O=S(=O)(O)c1cc2c(O)c(c1)Cc1cc(S(=O)(=O)O)cc(c1O)Cc1cc(S(=O)(=O)O)cc(c1O)Cc1cc(S(=O)(=O)O)cc(c1O)Cc1cc(S(=O)(=O)O)cc(c1O)Cc1cc(S(=O)(=O)O)cc(c1O)C2 [GI-2029] | 80+3% of Control | 71+3% of Control | 78+3% of Control | 103+5% of Control | 98+5% of Control | 118+6% of Control | 50+5% of Control | 105+6% of Control | 104+6% of Control | 115+6% of Control | 102+4% of Control | 107+5% of Control | 50+3% of Control | 70+3% of Control | activity remained suppressed at 60 and 90 min | 44+3% of Control | 78+5% of Control | 91+5% of Control | 99+6% of Control | 96+ 5% of Control | DNA polymerase α (DNA polymerase α; 50 μM): 60+3% of Control; Carbamyl phosphate synthetase ([2]; 100 μM): 72+3% of Control; Pyrimidine de novo synthesis ([3]; 100 μM): 93+7% of Control |
| COc1c2cc(S(=O)(=O)[O-])cc1Cc1cc(S(=O)(=O)[O-])cc(c1OC)Cc1cc(S(=O)(=O)[O-])cc(c1OC)Cc1cc(S(=O)(=O)[O-])cc(c1OC)Cc1cc(S(=O)(=O)[O-])cc(c1OC)Cc1cc(S(=O)(=O)[O-])cc(c1OC)Cc1cc(S(=O)(=O)[O-])cc(c1OC)Cc1cc(S(=O)(=O)[O-])cc(c1OC)C2.[Na+].[Na+].[Na+].[Na+].[Na+].[Na+].[Na+].[Na+] [GI-2021] | 64+4% of Control | 59+3% of Control | 77+5% of Control | 98+5% of Control | 85+5% of Control | 110+6% of Control |  | 112+7% of Control | 96+5% of Control | 122+7% of Control | 120+5% of Control | 123+4% of Control |  | 76+5% of Control | activity remained suppressed at 60 and 90 min | 52+4% of Control | 94+5% of Control | 94+6% of Control | 98+6% of Control |  | Protein synthesis (L1210 protein synthesis; 25 μM): 80+4% of Control; DNA synthesis (L1210 DNA synthesis; 25 μM): 105+6% of Control; DNA synthesis (L1210 DNA synthesis; 100 μM): 39+5% of Control; tRNA polymerase (tRNA polymerase; 100 μM): 76+4% of Control; Thymidine monophosphate kinase ([1]; 100 μM): 32+3% of Control; Thymidine kinase (Thymidine kinase; 100 μM): 76+4% of Control; mRNA polymerase (mRNA polymerase; 25 μM): 99+5% of Control; Carbamyl phosphate synthetase ([2]; 50 μM): 89+5% of Control; RNA synthesis (L1210 RNA synthesis; 25 μM): 109+6% of Control; RNA synthesis (L1210 RNA synthesis; 100 μM): 78+4% of Control; Pyrimidine de novo synthesis ([3]; 100 μM): 88+5% of Control |
| O=S(=O)(O)c1cc2c(O)c(c1)Cc1cc(S(=O)(=O)O)cc(c1O)Cc1cc(S(=O)(=O)O)cc(c1O)Cc1cc(S(=O)(=O)O)cc(c1O)Cc1cc(S(=O)(=O)O)cc(c1O)Cc1cc(S(=O)(=O)O)cc(c1O)Cc1cc(S(=O)(=O)O)cc(c1O)Cc1cc(S(=O)(=O)O)cc(c1O)C2 [GI-2041] | 70+3% of Control | 70+3% of Control | 84+5% of Control | 108+6% of Control |  | 80+5% of Control | 41+3% of Control | 116+5% of Control | 104+5% of Control | 112+5% of Control |  |  | 47+3% of Control | 85+5% of Control | returned to normal at 90 min |  | 142+6% of Control |  | 112+6% of Control | 97+5% of Control | DNA synthesis (L1210 DNA synthesis; 25 μM): 98+6% of Control; DNA synthesis (L1210 DNA synthesis; 100 μM): 33+5% of Control; Carbamyl phosphate synthetase ([2]; 50 μM): 82+5% of Control; RNA synthesis (L1210 RNA synthesis; 25 μM): 130+5% of Control |
